Source: US8815852B2, “Carbamoyloxy arylalkan arylpiperazine analgesics” (SK Biopharmaceuticals Co., Ltd., priority 2007, dated 2014)
pIC50: −log10 of the molar value. Read-outs that look alike come from different tables or passages of the source.

Assays:
male ICR mouse = assay: Acetic acid-induced writhing test in mouse; assay type: in vivo; details: Mus musculus; for inhibition in vivo at 10 mg/kg: at 10 po (method: 10 mg/kg oral, 1 hour before acetic acid), read-out: AA Writhing: Suppression ratio of Pain response; for ED50: unit not given (method doses in mg/kg), read-out: AA Writhing: ED50
Procedure: 2. Acetic Acid-Induced Writhing Test in Mouse
An acetic acid-induced writhing test is one of models for measuring an analgesic effect of drugs. A test material dissolved in a suitable vehicle was orally administered to a male ICR mouse weighing 30 to 35 g at an amount of 10 mg/kg. After 1 hour of the oral administration, […] of an aqueous 0.8% acetic acid solution was intraperitoneally injected into the male ICR mouse to induce the abdominal pain of the male ICR mouse. Right after the administration of acetic acid, the male ICR mouse was put into an empty cage, and the number of writhing behaviors of the mice was counted for 10 minutes. The term “writhing represents a reflex action in which the mouse overtly extends its abdomen by stretching its hind legs due to the abdominal pain. The analgesic effect of the test material is represented by the ‘suppression ratio of pain response’ {[(Writhing number of Vehicle-administered group−Writhing number of Test material-administered group)/(Writhing number of Vehicle-administered group)]×100%} or 50% of Effective amount (ED50 (median effective dose); an amount of test material that is required to suppress 50% of pain behaviors) of Test material. The ED50 (median effective dose) was determined by calculating the suppression ratio of pain response in at least three doses of test materials and subjecting to the linear regression.

5-HT1A receptor = 5-HT1A receptor (Rattus norvegicus (Rat), UniProt P19327); assay: Binding to 5-HT1A receptor ([3H]-8-OH-DPAT, rat cortical membranes); parameters: species or system Sprague-Dawley (SD) rats; details: for inhibition at 1 µM: 1 h, read-out: 5-HT1A: Suppression; for pIC50: 2 nM [3H]-8-OH-DPAT, read-out: 5-HT1A: IC50 (Concentration required to be 50% suppressed)
Procedure: Binding to 5-HT1A Receptor
6-week-old Sprague-Dawley (SD) rats were anesthetized in an ether container for 5 minutes, brains were separated from rats, and cortical regions were then separated from the brains of the rats. The cortical regions of the rats were put into a Tris-HCl buffer solution (50 mM, pH 7.4) and homogenized, and the homogenate was centrifuged twice at 4? at a rotary speed of 50,000 g to obtain a precipitate (membrane protein). The precipitate was put into a buffer solution, and homogenized, which was used later as a protein source. 2 nM [3H]-8-OH-DPAT was used as a radioactive isotope, and 10 uM serotonin was used to remove non-specific bindings. 25 ul of the compound, 100 ul of an aqueous radioactive isotope solution, and 100 ul of the protein source were put together, and kept at 25° C. for 1 hour. The resulting mixture was filtered with a membrane filter in a 96-well harvester when the 96-well plate reaction was completed. The competitivity of the compound to [3H]-8-OH-DPAT was determined by taking the membrane filter and measuring the radioactivity of the membrane filter in a scintillation counter, and an IC50 value was determined by measuring the increasing concentration of the compound. The specific reaction of the compound accounted for 90% or more. The general experiments were carried out according to the method by Middlemiss et al. (1984, Eur. J. Pharmacol.).

5-HT2A receptor = 5-HT2A receptor (Rattus norvegicus (Rat), UniProt P14842); assay: Binding to 5-HT2A receptor ([3H]-Ketanserin, rat cortical membranes); parameters: species or system Sprague-Dawley (SD) rats; details: for inhibition at 1 µM: 1 h, read-out: 5-HT2A: Suppression; for pIC50: 0.5 nM [3H]-Ketanserin, read-out: 5-HT2A: IC50 (Concentration required to be 50% suppressed)
Procedure: Binding to 5-HT2A Receptor
6-week-old Sprague-Dawley (SD) rats were anesthetized in an ether container for 5 minutes, brains were separated from rats, and cortical regions were then separated from the brains of the rats. The cortical regions of the rats were put into a Tris-HCl buffer solution (50 mM, pH 7.7) and homogenized, and the homogenate was centrifuged twice at 4° C. at a rotary speed of 50,000 g to obtain a precipitate (membrane protein). The precipitate was put into a buffer solution, and homogenized, which was used later as a protein source. 0.5 nM [3H]-Ketanserin was used as a radioactive isotope, and 10 uM serotonin was used to remove non-specific bindings. 25 ul of the compound, 100 ul of an aqueous radioactive isotope solution, and 100 ul of the protein source were put together, and kept at 25° C. for 1 hour. The resulting mixture was filtered with a membrane filter in a 96-well harvester when the 96-well plate reaction was completed. The competitivity of the compound to [3H]-Ketanserin was determined by taking the membrane filter and measuring the radioactivity in a scintillation counter, and an IC50 value was determined by measuring the increasing concentration of the compound. The specific reaction of the compound accounted for 90% or more. The general experiments were carried out according to the method by Leysen et al. (1982, Eur. J. Pharmacol).

Chain of 5-HT1A receptor (P19327 whole entry): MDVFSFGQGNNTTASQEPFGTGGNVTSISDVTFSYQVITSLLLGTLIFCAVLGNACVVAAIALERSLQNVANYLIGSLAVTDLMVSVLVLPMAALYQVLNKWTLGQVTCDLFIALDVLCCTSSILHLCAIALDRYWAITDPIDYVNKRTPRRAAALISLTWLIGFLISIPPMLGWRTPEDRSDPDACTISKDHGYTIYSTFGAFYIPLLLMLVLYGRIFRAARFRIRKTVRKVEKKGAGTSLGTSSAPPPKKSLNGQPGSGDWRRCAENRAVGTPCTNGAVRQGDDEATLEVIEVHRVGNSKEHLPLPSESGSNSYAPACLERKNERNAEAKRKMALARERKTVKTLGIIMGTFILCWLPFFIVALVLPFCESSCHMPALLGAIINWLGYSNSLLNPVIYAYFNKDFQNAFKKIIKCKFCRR
Chain of 5-HT2A receptor (P14842 whole entry): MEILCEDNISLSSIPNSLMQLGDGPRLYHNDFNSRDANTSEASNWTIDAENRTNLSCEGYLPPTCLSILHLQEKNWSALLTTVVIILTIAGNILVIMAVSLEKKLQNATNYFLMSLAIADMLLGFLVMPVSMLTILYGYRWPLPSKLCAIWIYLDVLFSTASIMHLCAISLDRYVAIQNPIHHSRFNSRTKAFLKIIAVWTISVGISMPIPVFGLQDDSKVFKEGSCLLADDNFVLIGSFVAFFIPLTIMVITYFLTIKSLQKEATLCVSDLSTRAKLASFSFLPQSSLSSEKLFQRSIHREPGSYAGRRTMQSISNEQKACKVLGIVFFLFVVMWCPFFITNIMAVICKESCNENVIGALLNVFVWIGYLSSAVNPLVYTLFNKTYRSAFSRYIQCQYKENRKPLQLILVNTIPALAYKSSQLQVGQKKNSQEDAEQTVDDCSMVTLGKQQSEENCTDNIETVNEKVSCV

Compound	inhibition in vivo at 10 mg/kg (male ICR mouse; po, 1 h)	inhibition at 1 µM (5-HT1A receptor)	inhibition at 1 µM (5-HT2A receptor)	pIC50 (5-HT1A receptor)	pIC50 (5-HT2A receptor)	further results
NC(=O)OC(CCN1CCN(c2ccccc2)CC1)c1cccc([N+](=O)[O-])c1 (stereo not shown) [Example 4, Carbamic acid 1-(3-nitro-phenyl)-3-(4-phenyl-piperazin-1-yl)-propyl ester]	48%	74.6%	86.4%	–	–	–
CC(C)(C)c1ccc(C(CCN2CCN(c3ccccc3)CC2)OC(N)=O)cc1 (stereo not shown) [Example 5, Carbamic acid 1-(4-tert-butyl-phenyl)-3-(4-phenyl-piperazin-1-yl)-propyl ester]	62%	44.4%	98.8%	–	–	–
NC(=O)OC(CCN1CCN(c2ccccc2)CC1)c1cccc(Cl)c1 (stereo not shown) [Example 7, Carbamic acid 1-(3-chloro-phenyl)-3-(4-phenyl-piperazin-1-yl)-propyl ester]	59%	76.4%	93.7%	–	–	–
COc1ccc(C(CCN2CCN(c3ccccc3)CC2)OC(N)=O)cc1 (stereo not shown) [Example 8, Carbamic acid 1-(4-methoxy-phenyl)-3-(4-phenyl-piperazin-1-yl)-propyl ester]	43%	67.7%	82%	–	–	–
Cc1ccc(C(CCN2CCN(c3ccccc3)CC2)OC(N)=O)cc1 (stereo not shown) [Example 10, Carbamic acid 3-(4-phenyl-piperazin-1-yl)-1-p-tolyl-propyl ester]	–	59.6%	85.6%	–	–	–
NC(=O)OC(CCN1CCN(c2ccc(F)cc2)CC1)c1ccccc1 (stereo not shown) [Example 21, Carbamic acid 3-[4-(4-fluoro-phenyl)-piperazin-1-yl]-1-phenyl-propyl ester]	–	–	–	5.98	7.19	inhibition in vivo at 10 mg/kg (male ICR mouse): 88%
NC(=O)OC(CCN1CCN(c2ccc(Cl)cc2)CC1)c1ccccc1 (stereo not shown) [Example 22, Carbamic acid 3-[4-(4-chloro-phenyl)-piperazin-1-yl]-1-phenyl-propyl ester]	–	–	–	5.73	6.58	–
NC(=O)OC(CCN1CCN(c2ccccn2)CC1)c1ccccc1 (stereo not shown) [Example 25, Carbamic acid 1-phenyl-3-(4-pyridin-2-yl-piperazin-1-yl)-propyl ester]	–	–	–	6.47	6.35	–
COc1cccc(N2CCN(CCC(OC(N)=O)c3ccccc3)CC2)c1 (stereo not shown) [Example 26, Carbamic acid 3-[4-(3-methoxy-phenyl)-piperazin-1-yl]-1-phenyl-propyl ester]	–	–	–	7.09	6.30	–
COc1ccccc1N1CCN(CCC(OC(N)=O)c2ccccc2)CC1 (stereo not shown) [Example 27, Carbamic acid 3-[4-(2-methoxy-phenyl)-piperazin-1-yl]-1-phenyl-propyl ester]	–	–	–	7.01	6.79	ED50 (male ICR mouse; po): 7.8 mg/kg
NC(=O)OC(CCN1CCN(c2cccc(Cl)c2)CC1)c1ccccc1 (stereo not shown) [Example 36, Carbamic acid 3-[4-(3-chloro-phenyl)-piperazin-1-yl]-1-phenyl-propyl ester]	–	–	–	7.03	7.21	ED50 (male ICR mouse; po): 17.5 mg/kg
NC(=O)OC(CCN1CCN(c2cccc(C(F)(F)F)c2)CC1)c1ccccc1 (stereo not shown) [Example 39, Carbamic acid 1-phenyl-3-[4-(3-trifluoromethyl-phenyl)-piperazin-1-yl]-propyl ester]	–	–	–	7.90	6.18	–
COc1ccccc1N1CCN(CCC(OC(N)=O)c2ccc(F)cc2)CC1 (stereo not shown) [Example 78, Carbamic acid 1-(4-fluoro-phenyl)-3-[4-(2-methoxy-phenyl)-piperazin-1-yl]-propyl ester]	34%	79%	71.5%	–	–	–
NC(=O)OC(CCN1CCN(c2ccc([N+](=O)[O-])cc2)CC1)c1ccc(F)cc1 (stereo not shown) [Example 79, Carbamic acid 1-(4-fluoro-phenyl)-3-[4-(4-nitro-phenyl)-piperazin-1-yl]-propyl ester]	70%	29.6%	29.6%	–	–	–
Cc1ccccc1N1CCN(CCC(OC(N)=O)c2ccc(F)cc2)CC1 (stereo not shown) [Example 80, Carbamic acid 1-(4-fluoro-phenyl)-3-(4-o-tolyl-piperazin-1-yl)-propyl ester]	29%	75.3%	76.8%	–	–	–
NC(=O)OC(CCN1CCN(C(c2ccc(F)cc2)c2ccc(F)cc2)CC1)c1ccccc1 (stereo not shown) [Example 93, Carbamic acid 3-{4-[bis-(4-fluoro-phenyl)-methyl]-piperazin-1-yl}-1-phenyl-propyl ester]	–	–	–	< 5.00	6.03	–
COc1ccccc1N1CCN(CCCC(OC(N)=O)c2ccccc2)CC1 (stereo not shown) [Example 95, Carbamic acid 4-[4-(2-methoxy-phenyl)-piperazin-1-yl]-1-phenyl-butyl ester]	–	–	–	8.24	5.82	–
NC(=O)OC(CCCN1CCN(c2ccccn2)CC1)c1ccccc1 (stereo not shown) [Example 96, Carbamic acid 1-phenyl-4-(4-pyridin-2-yl-piperazin-1-yl)-butyl ester]	–	–	–	7.69	5.50	–
NC(=O)OC(CCCN1CCN(c2ncccc2Cl)CC1)c1ccccc1 (stereo not shown) [Example 97, Carbamic acid 4-[4-(3-chloro-pyridin-2-yl)-piperazin-1-yl]-1-phenyl-butyl ester]	–	–	–	6.74	6.28	–
Cc1ccc(N2CCN(C(C)CC(OC(N)=O)c3ccccc3)CC2)cc1C (stereo not shown) [Example 111, Carbamic acid 3-[4-(3,4-dimethyl-phenyl)-piperazin-1-yl]-1-phenyl-butyl ester]	95%	–	–	–	–	–
CC(CC(OC(N)=O)c1ccccc1)N1CCN(c2cnc3ccccc3n2)CC1 (stereo not shown) [Example 112]	72%	–	–	–	–	–
COc1ccc(N2CCN(C(C)CC(OC(N)=O)c3ccccc3)CC2)cc1OC (stereo not shown) [Example 113, Carbamic acid 3-[4-(3,4-dimethoxy-phenyl)-piperazin-1-yl]-1-phenyl-butyl ester]	57%	–	–	–	–	–
CC(CC(OC(N)=O)c1ccccc1)N1CCN(c2ncc(Cl)cc2Cl)CC1 (stereo not shown) [Example 114]	39%	–	–	–	–	–
CC(CC(OC(N)=O)c1ccccc1)N1CCN(c2ccc(Cl)c(Cl)c2)CC1 (stereo not shown) [Example 115, Carbamic acid 3-[4-(3,4-dichloro-phenyl)-piperazin-1-yl]-1-phenyl-butyl ester]	68%	–	–	–	–	–
CC(CC(OC(N)=O)c1ccccc1)N1CCN(c2ccc(F)cc2F)CC1 (stereo not shown) [Example 116, Carbamic acid 3-[4-(2,4-difluoro-phenyl)-piperazin-1-yl]-1-phenyl-butyl ester]	87%	–	–	–	–	–
NC(=O)OC(c1ccccc1)C(F)CN1CCN(c2ccccc2)CC1 (stereo not shown) [Example 117, Carbamic acid 2-fluoro-1-phenyl-3-(4-phenyl-piperazin-1-yl)-propyl ester]	–	–	–	–	–	ED50 (male ICR mouse; po): 32.2 mg/kg
